US20230381328A1, “COMPOUND FOR THE PREVENTION OR TREATMENT OF MYASTHENIA GRAVIS” (ABLEVIA BIOTECH GMBH, priority 2020, published 2023)

Experiments:
[1] = system: myasthenogenic antibody mAB 198; assay: Peptide microarray mimotope screen, binding of mAB 198 to linear and cyclic peptides (fluorescence readout); design: species or system rat; conditions: cyclic mimotopes; binding of mAB 198, relative fluorescent signal after normalization against background
Description: A custom peptide array of 30000 peptides was synthesized, with peptides of 7-19 amino acids in size; the peptides were based on substitution analyses of 176 AChR-MIR peptides with exchanges of each amino acid positions by each of the 20 common amino acids. Peptides were synthesized directly on a microarray, and screened with monoclonal antibody mAB 198 in order to obtain mimotopes with a binding strength which was improved over the human AChR alpha chain MIR-containing sequence […] (Tzartos et al, 1991; Luo et al, 2009) and over a previously published mimotope sequence ([…]), that was derived from Torpedo AchR with the help of antibody mAB 132A (Trinh et al, 2014). In particular, the wild type AChR-MIR sequence is known to structurally mimic to a certain extent the epitope recognized by myasthenogenic, unwanted and disease-causing antibodies from patients. The mimotope peptide library was designed by permutation of each single amino acid position of these two sequences with all natural amino acids in order to provide a maximally diversified collection of peptide variants. All peptides were synthesized in doublets as linear and as cyclic peptides. The aim was to obtain peptides (mimotopes) that mimic the natural epitope of myasthenogenic antibodies.
For the mimotope screen, the antibody mAB 198 (Absolute Antibody Ltd, UK) was used. This is a prototype antibody that was generated in rats using human AChR (Tzartos et al, 1983; Asher et al, 1993). […] Therefore, mAB198 was used as a surrogate probe to screen for new mimotopes that are capable of mimicking the corresponding AChR-MIR epitope or portions of the epitope.
As a readout, binding of mAB 198 to the 30000 linear and cyclic peptides was measured by fluorescence readout, and peptides were ranked according to their relative fluorescent signal after normalization against the background.
The top-ranked 100 linear and cyclic mimotopes are listed in Table 1 and Table 2 above, respectively.

[2] = biological target: monoclonal antibody mAB 198; assay: peptide microarray, fluorescence, linear peptide

Molecule	relative signal [%] [1] [%]	relative signal [%] [2] [%]
119 (GGSLRINPADY) [compound 119]	25.4	–
121 (WNPADYR) [compound 121]	24.9	–
124 (RRNPADY) [compound 124]	23.5	–
128 (GGSLRVNPADY) [compound 128]	22.5	–
129 (RGNPADYGG) [compound 129]	22.2	–
130 (SLRLNPADY) [compound 130]	21.8	–
131 (DVRLRPNPADY) [compound 131]	21.3	–
133 (WNPADYP) [compound 133]	21.1	–
135 (GGSLRGNPADY) [compound 135]	19.6	–
137 (RVNPADY) [compound 137]	18.7	–
138 (GSLRWNPADYR) [compound 138]	16.2	–
143 (RTNPADY) [compound 143]	14.6	–
144 (GGSLRFNPADY) [compound 144]	14.5	–
145 (RLYWNPADY) [compound 145]	13.7	–
146 (GNPADYGGI) [compound 146]	13.7	–
148 (VRLRVNPADYG) [compound 148]	13.4	–
150 (NPADYGD) [compound 150]	12.6	–
151 (VNPADYG) [compound 151]	12.5	–
153 (RPRWNPADY) [compound 153]	12.4	–
154 (GSLRWNPADYP) [compound 154]	12.4	–
155 (SLRYNPADY) [compound 155]	12.2	–
156 (RANPADY) [compound 156]	12.2	–

Molecule	relative signal [%] [1] [%]	relative signal [%] [2] [%]
159 (NPADYGY) [compound 159]	11.8	–
169 (DVRLRYNPADY) [compound 169]	10.5	–
170 (GSLRFNPADYG) [compound 170]	10.4	–
171 (GGSLRWNPADR) [compound 171]	10.3	–
172 (LRWNPADYR) [compound 172]	10.3	–
173 (LRWNPADYGGF) [compound 173]	10.3	–
174 (GSLRWNPADYD) [compound 174]	10.2	–
175 (RLRWNPADYHG) [compound 175]	10.1	–
176 (RLRWNPADYGP) [compound 176]	10.0	–
177 (GSLRWNPADYN) [compound 177]	10.0	–
183 (RLRPNPADY) [compound 183]	9.8	–
184 (RLLWNPADY) [compound 184]	9.7	–
187 (VRLRLNPADYG) [compound 187]	9.7	–
188 (SLYWNPADY) [compound 188]	9.4	–
194 (DVRLRQNPADY) [compound 194]	8.8	–
195 (SLRWNPADYHG) [compound 195]	8.7	–
198 (LRFNPAD) [compound 198]	8.6	–
200 (GGSLRLNPADY) [compound 200]	8.5	–
LRLNPAD [LRLNPAD, linear mimotope]	–	25.2
NPADYGV [NPADYGV, linear mimotope]	–	6
LRRNPAD [LRRNPAD, linear mimotope]	–	100
VRLRFNP [VRLRFNP, linear mimotope]	–	27.1

Other lines, results leading:

relative signal [%] [1] [%]	relative signal [%] [2] [%]	Molecule
25.0	–	120 (DVRLRGNPADY) [compound 120]
24.5	–	122 (RLRYNPADY) [compound 122]
23.8	–	123 (RGNPADY) [compound 123]
23.4	–	125 (LRRNPADYG) [compound 125]
23.1	–	126 (RINPADYGG) [compound 126]
22.8	–	127 (LRINPADYG) [compound 127]
21.3	–	132 (RLRFNPADY) [compound 132]
20.2	–	134 (RYNPADY) [compound 134]
19.5	–	136 (NPADYGR) [compound 136]
15.8	–	139 (NPADYGH) [compound 139]
15.6	–	140 (RPNPADY) [compound 140]
15.4	–	141 (SLRGNPADY) [compound 141]
14.7	–	142 (VRLRRNPAD) [compound 142]
13.6	–	147 (SLRFNPADY) [compound 147]
13.1	–	149 (LRWNPADYP) [compound 149]
12.5	–	152 (GGGSLRRNPAD) [compound 152]
12.1	–	157 (GSLRINPADYG) [compound 157]
11.9	–	158 (RPNPADYGG) [compound 158]
11.5	–	160 (ALRWNPADY) [compound 160]
11.5	–	161 (GGSLRYNPADY) [compound 161]
11.5	–	162 (RIRWNPADY) [compound 162]
11.0	–	163 (RWNPADR) [compound 163]

relative signal [%] [1] [%]	relative signal [%] [2] [%]	Molecule
10.8	–	164 (RLHWNPADY) [compound 164]
10.7	–	165 (QLRWNPADY) [compound 165]
10.6	–	166 (RLRQNPADY) [compound 166]
10.5	–	167 (DVRLRWNPSDY) [compound 167]
10.5	–	168 (VRLRWNPADYS) [compound 168]
10.0	–	178 (VRLRINPADYG) [compound 178]
10.0	–	179 (LRPNPADYG) [compound 179]
9.9	–	180 (TLRWNPADY) [compound 180]
9.9	–	181 (VRLRGNPAD) [compound 181]
9.8	–	182 (RSRWNPADY) [compound 182]
9.7	–	185 (RLRWNPADYGS) [compound 185]
9.7	–	186 (GSLRWNPADYQ) [compound 186]
9.1	–	189 (LRGNPAD) [compound 189]
9.1	–	190 (RWNPADF) [compound 190]
9.0	–	191 (RLRGNPADYGG) [compound 191]
9.0	–	192 (WNPDDYR) [compound 192]
8.9	–	193 (LRWNPADYPGI) [compound 193]
8.7	–	196 (GSLRWNPADYT) [compound 196]
8.7	–	197 (NPADYGN) [compound 197]
8.6	–	199 (RLRTNPADY) [compound 199]
–	28.3	LRRNPADYG […, linear mimotope]
–	26.3	VRLRYNP [VRLRYNP, linear mimotope]
